Source: patent US10183011B2, “Anti-depression compounds” (Board of Regents of the University of Texas System, priority 2009, dated 2019)
“Also recorded” adds a separate entry of the source.

Key:
[1] = system: hippocampal neurogenesis in the DG; test: Comparison of P7C3 compounds and antidepressant drugs: DG BrdU labeling after i.c.v. infusion; assay type: in vivo, mouse; details: 10 μM i.c.v. for 7 days
Source text: The neuroprotective efficacies of both P7C3 and P7C3-A20 were next compared to currently marketed antidepressant medications, using screening conditions identical to those by which P7C3 was originally discovered. This experiment was based on the antidepressant actions of P7C3 and P7C3-A20 characterized here, and the dependence on hippocampal neurogenesis for behavioral efficacy of some marketed antidepressant medications in mice.
Proneurogenic efficacies in the DG of P7C3 and P7C3A20 were compared to those of vehicle (artificial cerebrospinal fluid) and several marketed antidepressant compounds (Sigma-Aldrich, St. Louis, Mo.) according to established methods. In brief, mice were housed individually in cages without running wheels or any form of environmental enrichment, in order to create an environment predicted to have as low of a baseline level of hippocampal neurogenesis as possible. Compounds (10 μM, i.c.v.) were administered for 7 days via subcutaneously implanted Alzet osmotic minipumps connected to a cannula directed into the left lateral ventricle, with implantation day designated as day 0. Starting on day 1, mice also received daily injections of BrdU (50 mg/kg, i.p.) at 9 am daily, for 6 days. Twenty four hours after the sixth BrdU injection, mice were transcardially perfused as described above.

[2] = system: neural precursor cells in the subgranular zone of the dentate gyrus; test: In vivo pro-neurogenic efficacy/neuroprotection assay: intracerebroventricular infusion, BrdU incorporation in the dentate gyrus; parameters: species or system mouse (C57/Bl6); details: direct administration into the brain via Alzet minipumps for one week, 10 μM unless stated
Protocol: Compounds were evaluated for pro-neurogenic efficacy/neuroprotection in our standard in vivo assay at 10 μM concentration in four 12 week old adult male C57/Bl6 mice.
In an effort to identify compounds that might stimulate the birth of new neurons, or protect newborn neurons from cell death, a library of 1,000 compounds was screened using an in vivo assay. In the initial screen, compounds were randomly pooled into groups often and administered intracerebroventricularly at a constant rate over seven days into the left lateral ventricle of living mice via Alzet osmotic mini-pumps. Compounds were administered at a concentration of 10 μM for each molecule, making a total solute concentration of 100 μM. After seven days of infusion at a constant rate of 0.5 μL/hour, a total of 84 μL of volume will have left the pump (0.00084 μMoles) and entered the cerebrospinal fluid. The average volume of a brain from a 12 week old male, C57/B6 mouse in our study is 500 mm^3. […] Under these conditions, at the end of one week of infusion each compound would be present at 1.7 μMolar concentration. Since the actual amount of chemical compound in the brain is likely to be only a fraction of this predicted level, it is reasonable to estimate that compounds were administered at mid to low-nanomolar concentrations.
During compound infusion, animals were intraperitoneally (IP) injected daily with the thymidine analog, bromodeoxyuridine (BrdU), as a means of scoring the birth and survival of proliferating neural precursor cells in the hippocampus. Because both social interaction and voluntary exercise are known to stimulate hippocampal neurogenesis, mice were housed individually without access to running wheels throughout the screening period. Following the week-long period of compound administration, animals were perfused and sacrificed. Dissected brain tissue was fixed, embedded, sectioned, stained with antibodies to BrdU, and evaluated by light microcopy as a means of quantifying neurogenesis and survival of newborn neural precursor cells localized to the subgranular layer of the dentate gyrus on the brain hemisphere contralateral to the side of mini-pump cannulation. Every fifth section throughout the entire rostral-caudal extent of the hippocampus was analyzed, and the total number of BrdU+ cells was normalized against the measured volume of the dentate gyrus. Because both increased proliferation and survival of newborn neurons are important screening parameters, the screen was conducted over seven days in order to cast a wide net to detect molecules that might augment either process. […] Intracranial infusions of either fibroblast growth factor 2 (FGF-2) or artificial cerebral spinal fluid (aCSF) vehicle via the same, week-long protocol were employed as positive and negative controls. There was no difference in the number of BrdU-labeled cells in the dentate gyrus between mice subjected to surgical pump implantation and infusion with vehicle, and mice having had no surgery (FIG. 2). This confirmed the validity of the in vivo approach to assess the ability of intracerebroventricularly infused compounds to enhance hippocampal neurogenesis in the contralateral hemisphere.
In order to further study Example 45 Compound, an in vivo structure activity relationship (SAR) study was conducted using 37 chemical derivatives of the compound for pro-neurogenic activity via direct administration into the brain of adult mice via Alzet minipumps. Compounds were administered for one week at 10 uM into 4 mice per compound, along with daily IP injections of BrdU. Following compound administration, animals were perfused, sacrificed and subjected to sectioning, staining and light microscopy in order to monitor hippocampal neurogenesis localized to the subgranular layer of the dentate gyrus. Roughly 10% of the variant compounds retained pro-neurogenic activity indistinguishable from the parent compound. […]

SNc dopaminergic neurons = test: MPTP-toxicity to SNc dopaminergic neurons, treatment started 24 hours after the last MPTP dose; assay type: in vivo, mouse (C57Bl/6); details: new analogs, 10 mice for each compound
Protocol: FIG. 29A and FIG. 29B. Neuroprotective efficacy of P7C3 and P7C3A20 from MPTP-toxicity to SNc dopaminergic neurons. FIG. 29A—Test compounds were evaluated by dose response assay for their ability to block MPTP-neurotoxicity in the SNc. […] VEH group contained 30 animals: 15 animals that received the P7C3A20/P7C3 vehicle, and 15 animals that received Dimebon vehicle (saline). […] Representative immunohistochemical pictures of TH-staining in the SNc are shown below the graph. Dosing is expressed as total mg/day, and was administered intraperitoneally in divided doses twice daily. Data are expressed as mean±SEM. […] P7C3A20 does so with greater effect, and Dimebon offers no protection. Striatal sections were obtained from the same mice used in FIG. 2, and compound treatment groups are from mice that received a dose of 20 mg/kg/d.
We compared the protective efficacy of our agents in the Tatton and Kish model of MPTP administration, which induces prolonged apoptotic death of SNc dopaminergic neurons lasting about 3 weeks after a short course of daily MPTP administration. Mice were treated daily for 5 days with 30 mg/kg/day free base MPTP. On the sixth day, 24 hours after receiving the fifth and final dose of MPTP, daily treatment with P7C3, P7C3A20, Dimebon or vehicle was initiated. […] Dose-response studies were conducted in which mice received twice daily doses of each compound (or vehicle) for the ensuing 21 days (FIG. 29A). […] At the end of the 21 day treatment period, mice were sacrificed by transcardial perfusion with 4% paraformaldehyde, and fixed brains were sectioned through the striatum and SNc at 30 μM intervals. Every fourth section (spaced 120 μM apart) was stained with antibodies specific to tyrosine hydroxylase (TH) (Abcam, rabbit anti-TH, 1:2500). The TH enzyme catalyzes the conversion of the amino acid L-tyrosine to L-3,4-dihydroxyphenylalanine (L-DOPA), which serves as the precursor for dopamine. TH staining thus provides a means to immunohistochemically identify dopaminergic neurons. By counting the number of TH+ cells in the SNc, we were able to assess the neuroprotective efficacy of the three chemicals following MPTP exposure. All microscopic analysis was performed by two investigators, blind to treatment group.
15 adult male C57Bl/6 mice were individually housed for one week and then injected daily for 5 days with 30 mg/kg/day (i.p.) free base MPTP (Sigma). On day 6, 24 hours after receiving the fifth and final dose of MPTP, daily treatment with P7C3, P7C3A20, Dimebon or vehicle was initiated. Mice were housed in disposable caging, and protective gear and precautions were implemented for handling MPTP in accordance with UT Southwestern Medical Center policy. Dose response studies were conducted in which mice received twice daily doses of each compound (or vehicle) by intraperitoneal injection for the following 21 days, after which mice were sacrificed by transcardial perfusion with 4% paraformaldehyde. Brains were dissected, fixed overnight in 4% paraformaldehyde, and cryoprotected in sucrose for freezing by standard procedures. Frozen brains were sectioned through the striatum and SNc at 30 uM intervals, and every fourth section (spaced 120 μM apart) was stained with antibodies directed against tyrosine hydroxylase (TH) (Abcam, rabbit anti-TH, 1:2500). Diaminobenzidine was used as a chromagen, and tissue was counter-stained with hematoxylin to aid in visualization of the neuroanatomy. Images were analyzed with a Nikon Eclipse 90i motorized research microscope with Plan Apo lenses coupled with Metamorph Image Acquisition software (Nikon). TH+ neurons were counted with Image J software (NIH) in every section by 2 blinded investigators and results were averaged and multiplied by the sectioning interval to determine the total number of TH+ neurons per SNc.

Row | Compound | increase of DG neurogenesis (BrdU labeling) over vehicle [1] | pro-neurogenic activity in the in vivo hippocampal neurogenesis assay [2] | activity in the MPTP protection assay (SNc dopaminergic neurons) | further results
1 | N[C@@H]1C[C@H]1c1ccccc1 (racemic) [tranylcypromine] | did not affect the magnitude of neurogenesis | – | – | –
2 | COc1cccc(NCC(F)Cn2c3ccc(Br)cc3c3cc(Br)ccc32)c1 (single isomer, unassigned) [Example 144a, N-(3-(3,6-dibromo-9H-carbazol-9-yl)-2-fluoropropyl)-3-methoxyaniline] | – | more active than P7C3-S114 | – | –
3 | COc1cccc(NCC(O)Cn2c3ccc(Br)cc3c3cc(Br)ccc32)c1 (single isomer, unassigned; (+)) [(+) (dextrorotatory) enantiomer of 1-(3,6-Dibromo-9H-carbazo] | – | higher activity | – | –
4 | COc1cccc(NCC(O)Cn2c3ccc(Br)cc3c3cc(Br)ccc32)c1 (single isomer, unassigned; (-)) [(−) (levorotatory) enantiomer of 1-(3,6-Dibromo-9H-carbazol-] | – | lower activity | – | –
5 | COc1cccc(NCC(O)Cn2c3ccc(Br)cc3c3cc(Br)ccc32)c1 (single isomer, unassigned; (-)) [(−) enantiomer of Example 62 Compound, 1-(3,6-Dibromo-9H-carbazol-9-yl)-3-(3-methoxyphenylamino)-propan-2-ol] | – | displayed diminished activity | – | –
6 | COc1cccc(NCC(O)Cn2c3ccc(Br)cc3c3cc(Br)ccc32)c1 (stereo not shown) [Example 62 Compound, 1-(3,6-Dibromo-9H-carbazol-9-yl)-3-(3-methoxyphenylamino)-propan-2-ol] | – | activity comparable to Example 45 Compound; also recorded: retained robust activity | – | –
7 | OC(CSc1ccccc1)Cn1c2ccc(Br)cc2c2cc(Br)ccc21 (stereo not shown) [Example P7C3-S7] | – | active in both | active in both | pro-neurogenic activity in the in vivo hippocampal neurogenesis assay ([2]; listed as P7C3S7): potency equal to or greater than P7C3 in both in vivo assays; activity in the MPTP protection assay (SNc dopaminergic neurons; listed as P7C3S7): potency equal to or greater than P7C3 in both in vivo assays
8 | OC(CNc1ncccn1)Cn1c2ccc(Br)cc2c2cc(Br)ccc21 (stereo not shown) [Example P7C3-S8] | – | devoid of activity in both assays | devoid of activity in both assays | –
9 | Cc1cc(C)n(CC(O)Cn2c3ccc(Br)cc3c3cc(Br)ccc32)n1 (stereo not shown) [Example P7C3-S25] | – | active in both | active in both | –
10 | COc1cccc(NCC(C)(O)Cn2c3ccc(Br)cc3c3cc(Br)ccc32)c1 (stereo not shown) [Example P7C3-S54] | – | retain neuroprotective activity in both assays | retain neuroprotective activity in both assays | –
11 | O=C(O)Cn1c2ccc(Br)cc2c2cc(Br)ccc21 [Example P7C3-S165] | – | neuroprotection was observed in both assays | neuroprotection was observed in both assays | –
12 | OC(COc1ccccc1)Cn1c2ccc(Br)cc2c2cc(Br)ccc21 (stereo not shown) [Example P7C3S40] | – | neuroprotective activity in both assays resides exclusively in the S enantiomer | neuroprotective activity in both assays resides exclusively in the S enantiomer | –
13 | O[C@H](COc1ccccc1)Cn1c2ccc(Br)cc2c2cc(Br)ccc21 [Example P7C3S41] | – | neuroprotective activity in both assays resides exclusively in the S enantiomer; also recorded: potency equal to or greater than P7C3 in both in vivo assays | neuroprotective activity in both assays resides exclusively in the S enantiomer; also recorded: potency equal to or greater than P7C3 in both in vivo assays | –
14 | CC(NC(C)(C)C)C(=O)c1cccc(Cl)c1 (stereo not shown) [bupropion] | about 49% | – | – | –
15 | CN(C)CCCN1c2ccccc2CCc2ccc(Cl)cc21 [clomipramine] | ~75% | – | – | –
16 | CNCCC(Oc1ccc(C(F)(F)F)cc1)c1ccccc1 (stereo not shown) [fluoxetine] | did not affect the magnitude of neurogenesis | – | – | –
17 | CN(C)CCCN1c2ccccc2CCc2ccccc21 [imipramine] | did not affect the magnitude of neurogenesis | – | – | –
18 | CN1CCN2c3ncccc3Cc3ccccc3C2C1 (stereo not shown) [mirtazapine] | did not affect the magnitude of neurogenesis | – | – | –
19 | CNCCC=C1c2ccccc2CCc2ccccc21 [nortriptyline, nortrypline] | did not affect the magnitude of neurogenesis | – | – | –
